Experimental data as given in patent publication US20250026752A1, “POSITIVE ALLOSTERIC MODULATORS OF THE MUSCARINIC ACETYLCHOLINE RECEPTOR M4” (Vanderbilt University, priority 2021, published 2025).

Molecular target: T1, human mAChR M4 (Homo sapiens, UniProt P08173)
T1 construct: expressed in transfected cells; host or cells: CHO-K1 (ATCC), stably expressing hM4 and Gqi5
T1 sequence (P08173 1-479): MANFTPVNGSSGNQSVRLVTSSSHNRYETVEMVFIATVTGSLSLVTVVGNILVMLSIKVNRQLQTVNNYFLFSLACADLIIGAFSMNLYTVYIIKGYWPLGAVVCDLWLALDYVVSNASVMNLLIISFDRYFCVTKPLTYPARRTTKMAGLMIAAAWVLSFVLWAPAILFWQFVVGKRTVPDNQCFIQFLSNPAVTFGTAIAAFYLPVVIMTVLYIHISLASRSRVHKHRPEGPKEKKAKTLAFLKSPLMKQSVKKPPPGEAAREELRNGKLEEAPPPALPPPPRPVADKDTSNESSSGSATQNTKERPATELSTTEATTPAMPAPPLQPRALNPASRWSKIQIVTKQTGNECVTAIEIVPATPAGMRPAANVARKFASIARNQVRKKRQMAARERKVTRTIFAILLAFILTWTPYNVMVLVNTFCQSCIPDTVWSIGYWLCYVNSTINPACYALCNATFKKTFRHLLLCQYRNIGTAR
Test: mAChR M4 cell-based functional assay: calcium flux (Fluo-4, FDSS), positive allosteric modulator activity on the EC20 acetylcholine response, hM4-Gqi5 CHO-K1 cells
Settings: for Emax at 30 µM: CHO-K1, human M4; for EC50: PAM activity on EC20 acetylcholine response, calcium flux, read-out: Human M4 EC50
How it was run: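 Potentiation was taken as the concentration-dependent rise in the EC20 acetylcholine calcium response, fitted by a four-parameter logistic with EC20 as baseline. Fluo-4-loaded hM4-Gqi5 CHO-K1 cells received 11-point, threefold-diluted compound before acetylcholine at 144 s; FDSS read at 1 Hz.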

SMILES: Cc1ccc(-c2cnc3c(c2)CN(c2nc(C)nc4ccc(F)cc24)CC3)cn1 [Compound 26, 6-fluoro-2-methyl-4-[3-(6-methyl-3-pyridyl)-7,8-dihydro-5H-1,6-naphthyridin-6-yl]quinazoline]
- Emax at 30 µM (% ACh maximum at 30 μM): 102%
- EC50 (human M4): 130 nM

SMILES: Cc1ccc2nc(C)nc(N3CCc4ncc(-c5cn(C)nc5C)cc4C3)c2c1 [Compound 32, 4-[3-(1,3-dimethylpyrazol-4-yl)-7,8-dihydro-5H-1,6-naphthyridin-6-yl]-2,6-dimethyl-quinazoline]
- Emax at 30 µM (% ACh maximum at 30 μM): 84%
- EC50 (human M4): 780 nM

SMILES: Cc1nc(N2CCc3ncc(-c4cc(C(F)(F)F)nn4C)cc3C2)c2cc(Cl)ccc2n1 [Compound 257, 6-chloro-2-methyl-4-(3-(1-methyl-3-(trifluoromethyl)-1H-pyrazol-5-yl)-7,8-dihydro-1,6-naphthyridin-6(5H)-yl)quinazoline]
- Emax at 30 µM (% ACh maximum at 30 μM): 87%
- EC50 (human M4): 830 nM

SMILES: Cn1nccc1Nc1cnc2c(c1)CN(c1ncnc3ccc(F)cc13)CC2 [Compound 75, 6-(6-fluoroquinazolin-4-yl)-N-(2-methylpyrazol-3-yl)-7,8-dihydro-5H-1,6-naphthyridin-3-amine]
- Emax at 30 µM (% ACh maximum at 30 μM): 100%
- EC50 (human M4): 30 nM

SMILES: Cn1nccc1-c1cnc2c(c1)CN(c1ncnc3ccc(Cl)cc13)CC2 [Compound 39, 6-chloro-4-[3-(2-methylpyrazol-3-yl)-7,8-dihydro-5H-1,6-naphthyridin-6-yl]quinazoline]
- Emax at 30 µM (% ACh maximum at 30 μM): 84%
- EC50 (human M4): 60 nM

SMILES: Cc1ccc(F)cc1-c1cnc2c(c1)CN(c1ncnc3ccc(F)cc13)CC2 [Compound 293, 6-fluoro-4-(3-(5-fluoro-2-methylphenyl)-7,8-dihydro-1,6-naphthyridin-6(5H)-yl)quinazoline]
- Emax at 30 µM (% ACh maximum at 30 μM): 80%
- EC50 (human M4): 740 nM

SMILES: Fc1ccc2ncnc(N3CCc4ncc(N5CCCn6nccc65)cc4C3)c2c1 [Compound 74, 4-[3-(6,7-dihydro-5H-pyrazolo[1,5-a]pyrimidin-4-yl)-7,8-dihydro-5H-1,6-naphthyridin-6-yl]-6-fluoro-quinazoline]
- Emax at 30 µM (% ACh maximum at 30 μM): 82%
- EC50 (human M4): 10 nM

SMILES: Fc1ccc2nc(C3CC3)nc(N3CCc4ncc(C(F)(F)F)cc4C3)c2c1 [Compound 178, 2-cyclopropyl-6-fluoro-4-[3-(trifluoromethyl)-7,8-dihydro-5H-1,6-naphthyridin-6-yl]quinazoline]
- Emax at 30 µM (% ACh maximum at 30 μM): 112%
- EC50 (human M4): 1900 nM

SMILES: Fc1ccc2ncnc(N3CCc4ncc(N5CCCn6nc(C(F)(F)F)cc65)cc4C3)c2c1 [Compound 276, 6-fluoro-4-(3-(2-(trifluoromethyl)-6,7-dihydropyrazolo[1,5-a]pyrimidin-4(5H)-yl)-7,8-dihydro-1,6-naphthyridin-6(5H)-yl)quinazoline]
- Emax at 30 µM (% ACh maximum at 30 μM): 96%
- EC50 (human M4): 320 nM

SMILES: Cc1ccc2ncnc(N3CCc4ncc(N5CCC(C(F)(F)F)n6nccc65)cc4C3)c2c1 (stereo not shown) [Compound 91, 6-methyl-4-[3-[7-(trifluoromethyl)-6,7-dihydro-5H-pyrazolo[1,5-a]pyrimidin-4-yl]-7,8-dihydro-5H-1,6-naphthyridin-6-yl]quinazoline]
- Emax at 30 µM (% ACh maximum at 30 μM): 116%
- EC50 (human M4): 130 nM

SMILES: Fc1ccc2nc(N3CCOc4ncccc43)nc(N3CCc4ncc(C(F)(F)F)cc4C3)c2c1 [Compound 198, 1-[6-fluoro-4-[3-(trifluoromethyl)-7,8-dihydro-5H-1,6-naphthyridin-6-yl]quinazolin-2-yl]-2,3-dihydropyrido[2,3-b][1,4]oxazine]
- Emax at 30 µM (% ACh maximum at 30 μM): 94%
- EC50 (human M4): 670 nM

SMILES: Fc1cc2c(N3CCc4ncc(Nc5cccnc5F)cc4C3)nc(Cl)nc2cc1Cl [Compound 110, 6-(2,7-dichloro-6-fluoro-quinazolin-4-yl)-N-(2-fluoro-3-pyridyl)-7,8-dihydro-5H-1,6-naphthyridin-3-amine]
- Emax at 30 µM (% ACh maximum at 30 μM): 76%
- EC50 (human M4): 3870 nM

SMILES: CC1CN(c2ncnc3ccc(F)cc23)Cc2cc(C(F)(F)F)cnc21 (single isomer, unassigned) [Compound 117, 6-fluoro-4-[(8R or S)-8-methyl-3-(trifluoromethyl)-7,8-dihydro-5H-1,6-naphthyridin-6-yl]quinazoline]
- Emax (%) (human M4, % ACh maximum at 30 μM): 100%
- EC50 (human M4): 400 nM

SMILES: CC1CN(c2ncnc3ccc(F)cc23)Cc2cc(N3CCOCC3)cnc21 (stereo not shown) [Compound 236, 4-(6-(6-fluoroquinazolin-4-yl)-8-methyl-5,6,7,8-tetrahydro-1,6-naphthyridin-3-yl)morpholine]
- Emax at 30 µM (% ACh maximum at 30 μM): 86%
- EC50 (human M4): 140 nM

SMILES: Fc1ccc2nc(N3CCCC3)nc(N3CCc4ncc(C(F)(F)F)cc4C3)c2c1 [Compound 195, 6-fluoro-2-pyrrolidin-1-yl-4-[3-(trifluoromethyl)-7,8-dihydro-5H-1,6-naphthyridin-6-yl]quinazoline]
- Emax at 30 µM (% ACh maximum at 30 μM): 95%
- EC50 (human M4): 730 nM

SMILES: [2H]c1nc(N2CCc3ncc(-c4cnc(C)s4)cc3C2)c2cc(C)ccc2n1 [Compound 174, 5-[6-(2-deuterio-6-methyl-quinazolin-4-yl)-7,8-dihydro-5H-1,6-naphthyridin-3-yl]-2-methyl-thiazole]
- Emax at 30 µM (% ACh maximum at 30 μM): 82%
- EC50 (human M4): 140 nM

SMILES: Cc1nn(C)cc1-c1cnc2c(c1)CN(c1nc(C3CC3)nc3ccc(Cl)cc13)CC2 [Compound 191, 6-chloro-2-cyclopropyl-4-[3-(1,3-dimethylpyrazol-4-yl)-7,8-dihydro-5H-1,6-naphthyridin-6-yl]quinazoline]
- Emax at 30 µM (% ACh maximum at 30 μM): 80%
- EC50 (human M4): 1070 nM

SMILES: Fc1ccc2ncnc(N3CCc4ncc(N5CCc6ncccc65)cc4C3)c2c1 [Compound 319, 4-(3-(2,3-dihydro-1H-pyrrolo[3,2-b]pyridin-1-yl)-7,8-dihydro-1,6-naphthyridin-6(5H)-yl)-6-fluoroquinazoline]
- Emax at 30 µM (% ACh maximum at 30 μM): 74%
- EC50 (human M4): 30 nM

SMILES: Cc1ccc(-c2cnc3c(c2)CN(c2nc(C(F)(F)F)nc4ccc(F)cc24)CC3)cn1 [Compound 67, 6-fluoro-4-[3-(6-methyl-3-pyridyl)-7,8-dihydro-5H-1,6-naphthyridin-6-yl]-2-(trifluoromethyl)quinazoline]
- Emax at 30 µM (% ACh maximum at 30 μM): 55%
- EC50 (human M4): 660 nM

SMILES: COc1ccc2ncnc(N3CCc4ncc(-c5cn(C)nc5C)cc4C3)c2c1 [Compound 13, 4-[3-(1,3-dimethylpyrazol-4-yl)-7,8-dihydro-5H-1,6-naphthyridin-6-yl]-6-methoxy-quinazoline]
- Emax at 30 µM (% ACh maximum at 30 μM): 109%
- EC50 (human M4): 370 nM

SMILES: Cc1ccc2nc(C)nc(N3CCc4ncc(-c5cnc(F)cc5C)cc4C3)c2c1 [Compound 318, 4-(3-(6-fluoro-4-methylpyridin-3-yl)-7,8-dihydro-1,6-naphthyridin-6(5H)-yl)-2,6-dimethylquinazoline]
- Emax at 30 µM (% ACh maximum at 30 μM): 92%
- EC50 (human M4): 70 nM

SMILES: Cc1nc(N2CCc3ncc(C(C)(O)C(F)(F)F)cc3C2)c2cc(Cl)ccc2n1 (stereo not shown) [Compound 291, 2-(6-(6-chloro-2-methylquinazolin-4-yl)-5,6,7,8-tetrahydro-1,6-naphthyridin-3-yl)-1,1,1-trifluoropropan-2-ol]
- Emax at 30 µM (% ACh maximum at 30 μM): 97%
- EC50 (human M4): 400 nM

SMILES: Cc1nc(N2CCc3ncc(Nc4cccnc4F)cc3C2)c2cc(F)ccc2n1 [Compound 70, 6-(6-fluoro-2-methyl-quinazolin-4-yl)-N-(2-fluoro-3-pyridyl)-7,8-dihydro-5H-1,6-naphthyridin-3-amine]
- Emax at 30 µM (% ACh maximum at 30 μM): 85%
- EC50 (human M4): 130 nM

SMILES: Cc1nc(N2CCc3ncc(-c4ccc(N(C)C)nc4)cc3C2)c2cc(Cl)ccc2n1 [Compound 49, 5-[6-(6-chloro-2-methyl-quinazolin-4-yl)-7,8-dihydro-5H-1,6-naphthyridin-3-yl]-N,N-dimethyl-pyridin-2-amine]
- Emax at 30 µM (% ACh maximum at 30 μM): 81%
- EC50 (human M4): 1230 nM

SMILES: COc1ccc2ncnc(N3CCc4ncc(Oc5cc(C)ccc5F)cc4C3)c2c1 [Compound 153, 4-[3-(2-fluoro-5-methyl-phenoxy)-7,8-dihydro-5H-1,6-naphthyridin-6-yl]-6-methoxy-quinazoline]
- Emax at 30 µM (% ACh maximum at 30 μM): 38%
- EC50 (human M4): > 10000 nM

SMILES: FC(F)(F)c1cnc2c(c1)CN(c1nc(Cl)nc3ccc(Cl)cc13)CC2 [Compound 141, 2,6-dichloro-4-[3-(trifluoromethyl)-7,8-dihydro-5H-1,6-naphthyridin-6-yl]quinazoline]
- Emax at 30 µM (% ACh maximum at 30 μM): 95%
- EC50 (human M4): 220 nM

SMILES: Cc1nc(N2CCc3ncc(C(F)(F)F)cc3C2)c2ccc(Br)cc2n1 [Compound 128, 7-bromo-2-methyl-4-[3-(trifluoromethyl)-7,8-dihydro-5H-1,6-naphthyridin-6-yl]quinazoline]
- Emax at 30 µM (% ACh maximum at 30 μM): 32%
- EC50 (human M4): 1740 nM

SMILES: Cc1nc(N2CCc3ncc(N4CCOC(c5ccccn5)C4)cc3C2)c2cc(F)ccc2n1 (stereo not shown) [Compound 224, 4-(6-(6-fluoro-2-methylquinazolin-4-yl)-5,6,7,8-tetrahydro-1,6-naphthyridin-3-yl)-2-(pyridin-2-yl)morpholine]
- Emax at 30 µM (% ACh maximum at 30 μM): 72%
- EC50 (human M4): 930 nM

SMILES: CC(C)n1nccc1-c1cnc2c(c1)CN(c1ncnc3ccc(F)cc13)CC2 [Compound 264, 6-fluoro-4-(3-(1-isopropyl-1H-pyrazol-5-yl)-7,8-dihydro-1,6-naphthyridin-6(5H)-yl)quinazoline]
- Emax at 30 µM (% ACh maximum at 30 μM): 82%
- EC50 (human M4): 140 nM
